# From US20240051992A1, “THIOPHOSPHOPEPTIDES FOR ULTRAFAST TARGETING OF THE GOLGI APPARATUS” (BRANDEIS UNIVERSITY, priority 2021, published 2024)
# pIC50: −log10 of the molar value. Where “and” joins values, the source holds several entries; their conditions need not be identical. Equal values may be shown once. Read-outs that look alike come from different tables or passages of the source.
# Assays:
# [1] = test system: alkaline phosphatase (ALP)
# Procedure: Determination of Dephosphorylation Rates in vitro: To determine the dephosphorylation rates of thiophosphopeptides in vitro, pS1, pO1, pS2, pO2 solutions (PBS, pH 7.4) were prepared at concentration of 120 μM and ALP was added into the solutions to make the final concentration of ALP to 0.1 U/mL at 37° C. At the designated time, the same volume of methanol was added to eliminate the activity of ALP. LC/MS was used analyse the results.
# [2] = test system: Golgi of HeLa cells; assay: CLSM fluorescence imaging of Golgi accumulation in HeLa cells; conditions: for Golgi fluorescence: 4 minutes
# [3] = Critical micelle concentration (CMC) determination by dynamic light scattering; type: physicochemical; conditions: thiophosphopeptide in deionized water, pH 7.4, DLS
# Procedure: Critical micelle concentration (CMC) determination: A series of solutions of compounds (pS1, pS2), from the concentration of 0.0625 μM to 400 μM, were prepared in deionized water and adjusted the pH to 7.4. The count rates of the solutions were measured and recorded by an ALV/DLS/SLS-5000 Light Scattering System, which were converted to the intensity of scattered light and then plotted against concentrations to determine the CMC values. Then, ALP (0.1 U/mL) was added to the series of solutions and after 24 h, the same procedures were proceeded to determine CMC values of dephosphorylated pS1 and pS2 (S1 and S2).
# [4] = test system: HeLa cells; assay: Cytotoxicity against HeLa cells; type: cell-based; conditions: 24 h
# Procedure: (§1) Cell Lines: All cell lines used (HeLa, Saos-2, SJSA-1, OVSAHO, HCC1937, HepG2, OVCAR-4, SKOV-3, MCF-7, HEK293, HS-5) were purchased from the American Type Culture Collection (ATCC, Manassas, VA, USA). HeLa, HepG2, MCF-7 and HEK293 cells were cultured in MEM medium with 10% FBS and 1% P/S (100 U mL^−1 penicillin and 100 μg mL^−1 streptomycin, Invitrogen Life Technologies). Saos-2, SKOV-3 cells were cultured in McCoy's 5A medium with 15% FBS and 1% P/S. HS-5 cells were cultured in DMEM medium with 10% FBS and 1% P/S. SJSA-1, OVSAHO, HCC1937, OVCAR-4 cells were cultured in RPMI-1640 medium with 10% FBS and 1% P/S. All the cells were cultured at 37° C. in a humidified atmosphere of 5% CO2. To determine the cytotoxicity of the compounds, cells were seeded in 96-well cell plate at 1.0×10^4 cells/well for 24 h followed by culture medium removal, and then fresh culture medium containing compounds were added. For fluorescence imaging, cells were seeded in confocal dish at 1.5×10^5 cells/dish for 24 h followed by the addition of fresh medium containing compounds, and then the fluorescence of cells were taken by ZEISS LSM 880 confocal laser scanning microscope with the 63× oil lens.
# [5] = Cytotoxicity against HEK293 cells; type: cell-based; conditions: human
# Procedure: as §1
# [6] = Cytotoxicity against HS-5 cells; type: cell-based; conditions: human
# Procedure: as §1
# [7] = test system: Golgi of HeLa cells; assay: Staining of pS2-treated HeLa cells with tetracysteine probe FlAsH-EDT2; type: cell-based; conditions: pS2 10 μM, 4 h; FlAsH-EDT2 1 μM, 1 h
# Procedure: Staining cells with FlAsH-EDT 2: Briefly, after incubating HeLa cell lines (1.5×10^5) in 3.5 cm confocal dish for 24 h at 37° C. in a humidified atmosphere of 5% CO2, we discarded the medium and added fresh medium containing pS2 (10 μM) and incubated them together for 4 h. After 4 h, medium was removed followed by three-time wash by cell imaging buffer to eliminate FBS. Then, we added FlAsH-EDT2 solution (cell imaging buffer, 1 μM) into the confocal dish and incubated the HeLa cells at 37° C. for 1 h. Meanwhile, we prepared 1,2-Ethanedithiol (EDT) solution (cell imaging buffer, 250 μM) and after the one-hour incubation of HeLa cells with FlAsH-EDT2, FlAsH-EDT2 was discarded and EDT solution was added to the confocal dish to eliminate the unspecific binding of FlAsH-EDT2 for 10 min. Ten minutes later, EDT solution was removed and cells were washed with cell imaging buffer three times and the fluorescence images were taken by ZEISS LSM 880 confocal laser scanning microscope.
# [8] = Transmission electron microscopy of pS1 with or without ALP; type: physicochemical; conditions: 5 μM, without ALP
# Procedure: Transmission Electron Microscopy Experiments: The 400 mesh copper grids coated with carbon film was glowing discharged and sample solutions (5 μL of each) was placed onto the grids. After 30 seconds, the sample solution was removed, and the grids were stained by uranyl acetate (2% v/v) and allowed to dry in air. TEM images were obtained with Morgagni 268 transmission electron microscope at the HV of 80 kV with filament of 2.
# [9] = test system: Saos-2 cells; assay: CLSM rate of fluorescence increase at Golgi, Saos-2; type: cell-based; conditions: pS1 10 μM
# Procedure: as §1, with “lens. […]” for “lens.”
# [10] = test system: SJSA-1 cells; assay: CLSM rate of fluorescence increase at Golgi, SJSA-1; type: cell-based; conditions: pS1 10 μM
# Procedure: as §1, with “lens. […]” for “lens.”
# [11] = test system: OVSAHO cells; assay: CLSM rate of fluorescence increase at Golgi, OVSAHO; type: cell-based; conditions: pS1 10 μM
# Procedure: as §1, with “lens. […]” for “lens.”
# [12] = test system: HCC1937 cells; assay: CLSM rate of fluorescence increase at Golgi, HCC1937; type: cell-based; conditions: pS1 10 μM
# Procedure: as §1, with “lens. […]” for “lens.”
# [13] = test system: HepG2 cells; assay: CLSM rate of fluorescence increase at Golgi, HepG2; type: cell-based; conditions: pS1 10 μM
# Procedure: as §1, with “lens. […]” for “lens.”
# [14] = test system: OVCAR4 cells; assay: CLSM rate of fluorescence increase at Golgi, OVCAR-4; type: cell-based; conditions: pS1 10 μM
# Procedure: as §1, with “lens. […]” for “lens.”
# [15] = test system: SKOV3 cells; assay: CLSM rate of fluorescence increase at Golgi, SKOV-3; type: cell-based; conditions: pS1 10 μM
# Procedure: as §1, with “lens. […]” for “lens.”
# [16] = test system: MCF7 cells; assay: CLSM rate of fluorescence increase at Golgi, MCF-7; type: cell-based; conditions: pS1 10 μM
# Procedure: as §1, with “lens. […]” for “lens.”
# [17] = test system: HEK293 cells; assay: CLSM rate of fluorescence increase at Golgi, HEK293; type: cell-based; conditions: pS1 10 μM
# Procedure: as §1, with “lens. […]” for “lens.”
# [18] = test system: HS-5 cells; assay: CLSM rate of fluorescence increase at Golgi, HS-5; type: cell-based; conditions: pS1 10 μM
# Procedure: as §1, with “lens. […]” for “lens.”
molecule,measurement,setting,value
"NBD-(β-Ala-f-f-NH—(CH2)2-phosphate [pO1, reference compound]","dephosphorylation by ALP (rate, in words)",[1]; pH 7.4,taking longer time for dephosphorylation than that of pS1
same,fluorescence in cells,"[2]; 10 μM, 8 minutes",almost no fluorescence
same,fluorescence in cells,"[2]; 100, 50, 20 μM, 4 hours",several scattered fluorescent puncta in cells
same,cellular uptake and localisation,[2]; HeLa cells,requires hours for cellular uptake and largely remains in endosomes
O=C(Cc1ccc2ccccc2c1)N[C@H](Cc1ccccc1)C(=O)N[C@H](Cc1ccccc1)C(=O)NCCSP(=O)(O)O [pS2],critical micelle concentration (CMC),[3],9.5 µM
same,"dephosphorylation by ALP (rate, in words)","[1]; 120 μM, ALP 0.1 U/mL, PBS pH 7.4, 37° C.",rapid dephosphorylation
same,conversion to dephosphorylated product,"[1]; ALP 0.1 U/mL, about 16 minutes",nearly fully converted
same,selectivity against cancer cells (HeLa vs HEK293 and HS-5),[4]; compared with S2,more selective than S2
same,pIC50,[4]; HeLa cells,5.55 and ~5.52
same,inhibitory activity against HeLa cells relative to pO2,[4]; HeLa cells,an order of magnitude higher than that of pO2
same,"rescue of HeLa cells by cell death inhibitors (Z-VAD-FMK, NAc, Nec-1, DFO, Fer-1, disulfiram)",[4]; pS2 10 μM,unable to rescue
same,IC50 at 24 h,[5],> 100000 nM
same,IC50 at 24 h,[6],> 100000 nM
same,FlAsH-EDT2 staining of treated cells,[7],fluorescent at the Golgi of the HeLa cells
NBD-(β-Ala-f-f-NH—(CH2)2-thiophosphate [pS1],critical micelle concentration (CMC),[3],6.0 µM
same,assemblies seen by TEM,[8],micelles
same,"dephosphorylation by ALP (rate, in words)",[1]; pH 7.4,fast dephosphorylation
same,fluorescence intensity increase at the Golgi,[9],increase significantly
same,fluorescence intensity increase at the Golgi,[10],increase significantly
same,fluorescence intensity increase at the Golgi,[11],increase significantly
same,fluorescence intensity increase at the Golgi,[12],increase significantly
same,fluorescence intensity increase at the Golgi,[13],slightly
same,fluorescence intensity increase at the Golgi,[14],slightly
same,fluorescence intensity increase at the Golgi,[15],much slowly
same,fluorescence intensity increase at the Golgi,[16],much slowly
same,fluorescence intensity increase at the Golgi,[17],much slowly
same,fluorescence intensity increase at the Golgi,[18],much slowly
same,time until distinctive fluorescence appears at the Golgi,[2]; 500 nM,15 min
same,Golgi fluorescence,[2]; 2 μM,much weaker fluorescence at the Golgi
same,Golgi fluorescence,[2]; 5 μM,"green fluorescence clearly still presents at the Golgi, but little at the ER"
same,enhancement of fluorescence intensity at the Golgi from 1 minute to 8 minutes,[2]; 10 μM,about 7 times
same,onset of fluorescence after addition,"[2]; 10 μM, 0 min",appears almost instantly
same,Golgi fluorescence,[2]; 10 μM,bright green fluorescence presents in Golgi and weak fluorescence in ER
same,colocalisation of fluorescence with CellLight Golgi-RFP,"[2]; 10 μM, 8 minutes",overlaps with the red fluorescence from all Golgi-RFP
same,cell morphology in DIC image,"[2]; 10 μM, 20 min",well-spread HeLa cells
same,concentration as low as which S1 accumulates at Golgi,[2]; HeLa cells treated with pS1,500 nM
same,fluorescence at Golgi of pretreated cells in fresh culture medium (exocytosis),"[2]; HeLa pretreated with pS1, fresh medium",drops only slightly over time
same,rate of Golgi accumulation when protein disulfide isomerases (PDIs) are inhibited,[2]; PDI inhibition,slight decrease of the rate of Golgi accumulation
same,accumulation at Golgi after cytochalasin D (CytD),"[2]; pS1 10 μM, CytD 0.5, 1.0 μg/mL, 30 min pretreatment",decreases the accumulation of S1 at Golgi in a concentration-dependent manner
same,rate of fluorescence increase at Golgi after ALP inhibitor DQB,"[2]; pS1 10 μM, DQB 20 μM, 30 min pretreatment",reduce the rate of fluorescence increase at the Golgi
same,accumulation at Golgi with N-ethylmaleimide (NEM),"[2]; pS1 10 μM, NEM 5 mM, 16 min",almost completely eliminates the accumulation of S1 at Golgi
same,rate of fluorescence increase at Golgi after phosphatase inhibitor cocktail set 3 (PIC),"[2]; pS1 10 μM, PIC 4000×, 30 min pretreatment",reduce the rate of fluorescence increase at the Golgi
same,rate of fluorescence increase at Golgi after phospholipase C (PLC),"[2]; pS1 10 μM, PLC 0.2 U, 30 min pretreatment",slightly faster increase of fluorescence in the Golgi
same,rate of fluorescence increase at Golgi after methyl-β-cyclodextrin (mβCD),"[2]; pS1 10 μM, mβCD 5 mM, 30 min pretreatment",significantly decreases the rate of the fluorescence increase at the Golgi
same,accumulation at Golgi with Golgi disruptor brefeldin A (BFA),[2]; with BFA,abolishes the accumulation
